Assay results published in US4269831A, “Topical dermatological method of use of an androstenopyrazole” (priority 1979, dated 1981).

Tests used:
[1] = tested on: castrated immature male Syrian golden hamsters; assay: Systemic antiandrogenic and glucocorticoid activity, subcutaneous, with testosterone propionate (Table IV); format: in vivo; details: testosterone propionate 0.4 mg/kg/day alone for 14 days (androgen-treated control); mean, n=8
Experimental: A solution of the compound of Formula I in cottonseed oil was administered subcutaneously at 1 ml./kg. to castrated immature male Syrian golden hamsters having a mean initial body weight of 79 g. for 14 consecutive days concurrently with testosterone propionate. On the day following the last medication the hamsters were killed, the flank organ parameters were determined and the weights of seminal vesicles, adrenals and thymus glands were obtained.

[2] = target: T1, hamster flank organ cytosol receptor (Mesocricetus auratus, UniProt A0A1U7QL32); assay: Binding competition with 3H-dihydrotestosterone in hamster flank organ cytosol in vitro (Table VI); design: species or system Syrian golden hamsters; details: 3H-DHT 2 nM, two hours, no antagonist 13.96
T1 construct: The homogenate was centrifuged (120,000×g for 45 min.) and the cytosol was frozen and stored at -70° C; from tissue; host or cells: flank organ cytosol of castrated male Syrian golden hamsters
T1 sequence (A0A1U7QL32 1-900): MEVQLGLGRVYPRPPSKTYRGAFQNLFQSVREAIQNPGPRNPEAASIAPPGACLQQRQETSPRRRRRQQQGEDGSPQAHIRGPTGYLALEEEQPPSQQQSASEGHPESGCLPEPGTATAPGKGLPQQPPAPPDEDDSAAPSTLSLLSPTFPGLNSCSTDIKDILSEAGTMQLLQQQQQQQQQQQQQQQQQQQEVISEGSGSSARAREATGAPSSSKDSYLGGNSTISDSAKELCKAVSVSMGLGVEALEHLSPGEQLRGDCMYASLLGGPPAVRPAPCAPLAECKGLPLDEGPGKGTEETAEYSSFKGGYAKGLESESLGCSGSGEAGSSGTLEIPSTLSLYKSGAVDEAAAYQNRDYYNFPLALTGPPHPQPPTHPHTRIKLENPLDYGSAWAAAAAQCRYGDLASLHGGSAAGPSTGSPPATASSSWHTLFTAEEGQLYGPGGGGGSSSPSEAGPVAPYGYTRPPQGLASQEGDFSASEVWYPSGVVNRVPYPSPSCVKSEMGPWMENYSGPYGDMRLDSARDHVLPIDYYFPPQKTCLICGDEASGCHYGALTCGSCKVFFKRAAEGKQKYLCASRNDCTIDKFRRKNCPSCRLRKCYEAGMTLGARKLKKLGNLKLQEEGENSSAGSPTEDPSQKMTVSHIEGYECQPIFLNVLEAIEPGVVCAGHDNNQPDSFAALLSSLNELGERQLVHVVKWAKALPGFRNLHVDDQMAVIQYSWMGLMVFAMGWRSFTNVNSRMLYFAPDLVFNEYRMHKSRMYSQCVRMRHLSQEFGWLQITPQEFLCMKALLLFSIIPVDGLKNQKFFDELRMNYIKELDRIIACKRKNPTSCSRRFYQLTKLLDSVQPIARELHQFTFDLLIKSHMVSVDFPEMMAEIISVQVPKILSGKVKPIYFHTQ
Experimental: The flank organs of twelve mature male Syrian golden hamsters each weighing from 120 to 140 g. and having been castrated 16-18 hours earlier were excised, dissected under the microscope to remove the dermis and the muscle layers and homogenized in buffer (1.5 volumes of 50 mM Tris, 0.5 mM mercaptoethanol and 0.1 mM ethylenediamine tetracetate, pH 7.4). The homogenate was centrifuged (120,000×g for 45 min.) and the cytosol was frozen and stored at -70° C. Six of the cytosol samples were thawed at room temperature, pooled and used for evaluation of in vitro binding.

[3] = tested on: flank organ of mature male Syrian golden hamsters; assay: Topical comparison in mature male hamsters, right flank organ treated, left flank organ vehicle (Tables II, III); format: in vivo; details: n=7; for Flank organ Diameter, RFO / Flank organ Weight, RFO / Flank organ Development, RFO (median score): treated right flank organ; for Flank organ Diameter, RFO / Flank organ Weight, RFO: mean; for Flank organ Development, RFO (median score): scale 0 to 4 (0 barely visible, 4 as in mature male); for Flank Organ (Mean Score) Area / Flank Organ (Mean Score) Elevation / Flank Organ (Mean Score) Hair Growth / Flank Organ (Mean Score) Hair Pigmentation / Flank Organ (Mean Score) Skin Pigmentation: RFO, scale 0 to 4
From the text: Each flank organ of mature male Syrian golden hamsters having a mean initial body weight of 105 g. was medicated topically with the compound of Formula I dissolved in ethanol (5 microliters) for twenty-one days. Flank organ hair was clipped three times per week to facilitate application. On the day following the last medication the hamsters were killed with an overdose of sodium pentobarbital. The flank organ parameters and the weights of seminal vesicles, adrenals and thymus glands were determined. Flank organ diameter was measured parallel to the breadth of the hamster with vernier calipers. Wet weights were obtained on flank organs excised around the periphery of the pigmented area. The topical activity of the compound of Formula I was also compared with that of 17β-hydroxy-17α-propylandrost-4-en-3-one, an antiandrogen, and hydrocortisone. In this experiment the right flank organ was treated with the test compound while vehicle-treated left flank organ served as control. […] In addition, the individual characteristics of the flank organ, elevation (thickness relative to adjacent skin), area, hair pigment, skin pigment and hair growth were all scored separately on a scale of 0 to 4.

[4] = tested on: hair growth on backs of male adrenalectomized Sprague-Dawley rats; assay: Reduction in hair growth in male adrenalectomized rats, topical (Table VII); format: in vivo; details: 0.1% solution topical, n=12
From the text: Hair was clipped from the backs of male Sprague-Dawley rats, having a mean body weight of 300 g., three weeks after adrenalectomy. The clipped area (4 cm.×4 cm.) was medicated with approximately 500 microliters of 0.1% solution of the compound of Formula I, or hydrocortisone or 500 microliters of ethanol alone for a two-week pretreatment period. The clipped area was then depilated and the medication with either solution or ethanol alone was continued for 4 weeks. The density of hair growth was scored visually at weekly intervals and at termination of the experiment on a scale of 0 to 4 (0, no hair growth; 4, complete hair regrowth). Skinfold thickness was also measured using a micrometer at the end of the experiment, which was conducted blind.

[5] = after depilation, median score, scale 0 to 4

SMILES | Flank organ Diameter, RFO ([3]; 5 μg/RFO for 21 days) [mm] | Flank organ Weight, RFO ([3]; 5 μg/RFO for 21 days) [mg] | Flank organ Development, RFO (median score) ([3]; 5 μg/RFO for 21 days) | Flank organ Diameter, RFO ([3]; 50 μg/RFO for 21 days) [mm] | Flank organ Weight, RFO ([3]; 50 μg/RFO for 21 days) [mg] | Flank organ Development, RFO (median score) ([3]; 50 μg/RFO for 21 days) | Flank Organ (Mean Score) Area ([3]; 5 μg/flank organ for 21 days) | Flank Organ (Mean Score) Elevation ([3]; 5 μg/flank organ for 21 days) | Flank Organ (Mean Score) Hair Growth ([3]; 5 μg/flank organ for 21 days) | Flank Organ (Mean Score) Hair Pigmentation ([3]; 5 μg/flank organ for 21 days) | Flank Organ (Mean Score) Skin Pigmentation ([3]; 5 μg/flank organ for 21 days) | Flank Organ (Mean Score) Area ([3]; 50 μg/flank organ for 21 days) | Flank Organ (Mean Score) Elevation ([3]; 50 μg/flank organ for 21 days) | Flank Organ (Mean Score) Hair Growth ([3]; 50 μg/flank organ for 21 days) | Flank Organ (Mean Score) Hair Pigmentation ([3]; 50 μg/flank organ for 21 days) | Flank Organ (Mean Score) Skin Pigmentation ([3]; 50 μg/flank organ for 21 days) | also measured
CCC(=O)O[C@H]1CC[C@H]2[C@@H]3CCC4=CC(=O)CC[C@]4(C)[C@H]3CC[C@]12C [Testosterone Propionate, testosterone propionate, reference compound] |  |  |  |  |  |  |  |  |  |  |  |  |  |  |  |  | Final Body Weight [1]: 106; Flank Organ Diameter [1]: 4.3 mm; Flank Organ Wet Weight [1]: 22.8 mg; Organ Weights: Adrenals [1]: 18.2 mg; Organ Weights: Seminal Vesicles [1]: 157 mg; Organ Weights: Thymus [1]: 58 mg
C[C@]12CCC(=O)C[C@@H]1CC[C@@H]1[C@@H]2CC[C@]2(C)[C@@H](O)CC[C@@H]12 [DHT, Dihydrotestosterone, reference compound] |  |  |  |  |  |  |  |  |  |  |  |  |  |  |  |  | % Bound (Mean ± SE) of 3H-dihydrotestosterone ([2]; unlabelled antagonist 20 nM, molar ratio 10): 7.95 ± .41%; % Bound (Mean ± SE) of 3H-dihydrotestosterone ([2]; unlabelled antagonist 200 nM, molar ratio 100): 4.22 ± .001%; % Bound (Mean ± SE) of 3H-dihydrotestosterone ([2]; unlabelled antagonist 2000 nM, molar ratio 1000): 4.00 ± .22%
CCC[C@]1(O)CC[C@H]2[C@@H]3CCC4=CC(=O)CC[C@]4(C)[C@H]3CC[C@@]21C [17β-Hydroxy-17α-propylandrost-4-en-3-one, 17β-hydroxy-17α-propylandrost-4-en-3-one] | 4.9 | 33.8 | 3 | 3.9 | 21.4 | 2 | 3.1 | 2.6 | 3.1 | 3.3 | 4.0 | 1.6 | 1.4 | 2.3 | 2.6 | 2.7 | 
C[C@]12CCC(=O)C=C1CC[C@@H]1[C@@H]2[C@@H](O)C[C@@]2(C)[C@H]1CC[C@]2(O)C(=O)CO [Hydrocortisone, hydrocortisone] | 5.7 | 38.5 | 4 | 5.7 | 39.1 | 4 | 3.7 | 3.7 | 1.9 | 3.7 | 3.9 | 4.0 | 3.5 | 1.3 | 3.0 | 3.4 | Hair Growth Score, Treatment week 1 [4, 5]: 0; Hair Growth Score, Treatment week 2 [4, 5]: 0; Hair Growth Score, Treatment week 3 [4, 5]: 1; Hair Growth Score, Treatment week 4 [4, 5]: 2; Skinfold Thickness, Treatment week 4 ([4]; mean, vehicle 2.51): 2.11 mm; Hair Growth Score, Pretreatment week 1 ([4]; median score, scale 0 to 4 (0 no hair growth, 4 complete regrowth)): 2; Hair Growth Score, Pretreatment week 2 ([4]; median score, scale 0 to 4): 3
